In brackets after ≈: the same amount, converted by molar mass. Read-outs that look alike come from different tables or passages of the source.
Tests used:
[1] = test system: cyclophosphamide-resistant L1210 and P-388 cell-lines; conditions: cited from earlier work
KBM-3/DOX = test: cells; type: cell-based, human; conditions: human, kbm-3/dox cells
L1210 leukemia cells [2] = test: cells; type: cell-based, murine; conditions: Mus musculus
KBM-3/AMSA = test: cells; type: cell-based, human; conditions: human, kbm-3/amsa cells
[3] = test system: GM-CFC from normal human bone marrow
L1210 leukemia cells [4] = test: Growth inhibition of L1210 leukemia cells in vitro by nucleoside analogues (Table 7); type: cell-based, murine; conditions: Mus musculus, growth inhibition by 50%, exposure 96 h, then 72 h drug-free culture
Procedure: The effectiveness against growth of L1210 cells of 1 these nucleoside analogs was tested and the growth inhibition shown in Table 7.
^a Exponentially growing cells were exposed to varying drug
concentrations for 96 h at 37° C. The cells were then centrifuged,
resuspended, and cultured in drugfree medium for 72 h.
^b The drug concentration that inhibited cell growth by 50% compared
to untreated control cultures.

[5] = test system: L1210 lymphatic leukemia cells; test: cells; type: cell-based, murine

CCN(CC)C(=S)SSC(=S)N(CC)CC [disulfiram]
effect on cytotoxicity of 4-hydroperoxycyclophosphamide and ASTA Z 7557 [1]: potentiate the cytotoxicity | sensitization of resistant L1210 cell-line [1]: rendered drug-sensitive

COc1cccc2c1C(=O)c1c(O)c3c(c(O)c1C2=O)C[C@@](O)(C(=O)CO)C[C@@H]3O[C@H]1C[C@H](N)[C@H](O)[C@H](C)O1 [doxorubicin, reference compound]
resistance of subline to doxorubicin (KBM-3/DOX): 100 fold

COc1cccc2c1C(=O)c1c(O)c3c(c(O)c1C2=O)C[C@@](O)(C(=O)CO)C[C@@H]3O[C@H]1C[C@H](NP(=O)(NCCCl)OCCC(OC(=O)C(C)(C)C)OC(=O)C(C)(C)C)[C@H](O)[C@H](C)O1 (stereo partly drawn) [Compound C-7]
IC50 (L1210 leukemia cells [2]): 0.035 µM

COc1cccc2c1C(=O)c1c(O)c3c(c(O)c1C2=O)C[C@@](O)(C(C)=O)C[C@@H]3O[C@H]1C[C@H](NP(=O)(NCCCl)OCCC(OC(C)=O)OC(C)=O)[C@H](O)[C@H](C)O1 (stereo partly drawn) [Compound C-4]
IC50 (L1210 leukemia cells [2]): 0.025 µM

CCN(CC)C(=S)S [diethyl dithiocarbamate]
effect on cytotoxicity of 4-hydroperoxycyclophosphamide and ASTA Z 7557 ([1]; cyclophosphamide-resistant L1210 and P-388): potentiate the cytotoxicity

COc1cc(NS(C)(=O)=O)ccc1Nc1c2ccccc2nc2ccccc12 [m-AMSA, 4'-(9-acridinylamino)-3-methanesulfon-m-amisidide, reference compound]
resistance of subline to m-AMSA (KBM-3/AMSA): 130 fold | GM-CFC recovery kinetics / progenitor sparing, in words [3]: nonselective killing of mature (GM-CFC) and primitive (pluripotent) myeloid progenitor cells

CC(=O)OC(CCOP(N)(=O)OC[C@@H]1CC[C@H](n2cc(C)c(=O)[nH]c2=O)O1)OC(C)=O (stereo partly drawn) [Compound D-3]
IC50 (L1210 leukemia cells [4]): 1.3 µM

CC(=O)OC(CCOP(=O)(NCCCl)NCCCl)OC(C)=O [Compound 22-F, 0-(3,3-Diacetatopropyl)-N-(2-chloroethyl)-N-(2chloroethyl)phosphorodiamide]
toxicity to L1210 cells, comparison in words [5]: much more potent than ASTA Z 7557 | IC50 ([5]; Mus musculus, L1210, 72 h, read-out: ED50): 1.7 µg/mL (≈ 4.48 µM)

N#CN [cyanamide]
effect on cytotoxicity of 4-hydroperoxycyclophosphamide and ASTA Z 7557 [1]: potentiate the cytotoxicity

COc1cccc2c1C(=O)c1c(O)c3c(c(O)c1C2=O)C[C@@](O)(C(=O)CO)C[C@@H]3O[C@H]1C[C@H](NP(=O)(NCCCl)OCCC(OC(C)=O)OC(C)=O)[C@H](O)[C@H](C)O1 (stereo partly drawn) [Compound C-3]
IC50 (L1210 leukemia cells [2]): 0.021 µM

CC(=O)OC(CCOP(N)(=O)OC[C@@H]1CC[C@H](n2ccc(=O)[nH]c2=O)O1)OC(C)=O (stereo partly drawn) [Compound D-1]
IC50 (L1210 leukemia cells [4]): 1.4 µM

Cc1cn([C@H]2CC[C@@H](COP(N)(=O)OCCC(OC(=O)C(C)(C)C)OC(=O)C(C)(C)C)O2)c(=O)[nH]c1=O (stereo partly drawn) [Compound D-4]
IC50 (L1210 leukemia cells [4]): 1.6 µM

CCOP(=O)(CCC=O)c1ccccc1 (stereo not drawn) [ethylphenyl(2-formylethyl) phosphinate]
effect on cytotoxicity of 4-hydroperoxycyclophosphamide and ASTA Z 7557 [1]: potentiate the cytotoxicity

CC(C)(C)C(=O)OC(CCOP(N)(=O)OC[C@@H]1CC[C@H](n2ccc(=O)[nH]c2=O)O1)OC(=O)C(C)(C)C (stereo partly drawn) [Compound D-2]
IC50 (L1210 leukemia cells [4]): 0.7 µM

COc1cccc2c1C(=O)c1c(O)c3c(c(O)c1C2=O)C[C@@](O)(C(C)=O)C[C@@H]3O[C@H]1C[C@H](NP(=O)(NCCCl)OCCC(OC(=O)C(C)(C)C)OC(=O)C(C)(C)C)[C@H](O)[C@H](C)O1 (stereo partly drawn) [Compound C-8]
IC50 (L1210 leukemia cells [2]): 0.03 µM

From US5055459A, “Selective elimination of malignant cells from bone marrow by bis (acyloxy) propylphosphoramidates” (Board of Regents, The University of Texas, priority 1989, dated 1991)
